This passage reports inhibition and inhibition in vivo results from patent US5500424A, “Pyrimidine and pyridine derivatives, their production and use” (Nihon Nohyaku Co., Ltd., priority 1993, dated 1996).

Test [1] concerns the target T1, acyl-CoA:cholesterol acyltransferase (ACAT) (Oryctolagus cuniculus, UniProt G1SFD9).
T1 construct: The intestinal mucosa of a white rabbit was homogenized and microsomal fraction was obtained; from tissue; host or cells: white rabbit intestinal mucosa, microsomal fraction
T1 sequence (G1SFD9 1-524): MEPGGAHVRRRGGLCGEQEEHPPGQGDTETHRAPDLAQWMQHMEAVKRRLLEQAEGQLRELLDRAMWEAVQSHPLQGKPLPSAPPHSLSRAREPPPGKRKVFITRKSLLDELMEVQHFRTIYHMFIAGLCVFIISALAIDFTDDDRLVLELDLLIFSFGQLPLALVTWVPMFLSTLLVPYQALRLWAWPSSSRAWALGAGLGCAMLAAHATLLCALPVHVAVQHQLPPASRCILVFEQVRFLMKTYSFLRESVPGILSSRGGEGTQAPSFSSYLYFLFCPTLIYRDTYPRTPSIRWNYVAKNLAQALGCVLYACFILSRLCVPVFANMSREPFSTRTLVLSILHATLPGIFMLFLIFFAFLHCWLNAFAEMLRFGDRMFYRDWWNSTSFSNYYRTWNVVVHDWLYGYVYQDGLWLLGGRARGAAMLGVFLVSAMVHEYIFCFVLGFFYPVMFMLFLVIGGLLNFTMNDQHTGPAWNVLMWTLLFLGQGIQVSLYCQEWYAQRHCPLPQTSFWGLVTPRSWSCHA
Kind of test: Inhibitory activity on acyl-CoA:cholesterol acyltransferase (ACAT). The test is classed as biochemical, white rabbit. As to conditions: rabbit intestinal mucosa microsomes, read-out: Inhibition rate. The procedure: Inhibitory activity on acyl-CoA:cholesterol acyltransferase (ACAT)
The enzyme used in the test was prepared according to the method of Heider et al. [J. Lipid, Res. 24, 1127 (1983)]. The intestinal mucosa of a white rabbit was homogenized and microsomal fraction was obtained by stepwise centrifugation. The microsomal fraction was suspended in 0.154M phosphate buffer (pH 7.4) and stored at -80° C. until use.
ACAT activity was determined by a modification of the method of Helgerud et al. [J. Lipid Res. 22, 271 (1981)] by measuring radioactivity incorporated into cholesterol esters from [1-^14 C]oleyl-CoA, as an indication. As to the ACAT-inhibitory activity of each compound to be tested, the inhibition rate was calculated by the following equation. [formula]

The test system of test [2] is cholesterol esterification in macrophages (J774 A.I cells). Kind of test: Inhibitory effect on cholesterol esterification in macrophages. The class given is cell-based. As to conditions: Mus musculus, AcLDL-loaded J774 A.I cells, read-out: Inhibition rate. The protocol: Inhibitory effect on cholesterol esterification in macrophages
The test was carried out by a modification of the method of Goldstein et al. [Pro. Nat. Acad. Sci. U.S.A. 71, 4288 (1974)]. J774 A.I cells, the mouse macrophage-like cell line, were suspended in Dulbecco's modified Eagle's medium (DMEM) containing 10% fetal calf serum (FCS), in a proportion of 3×10^5 cells per 2 ml and were seeded into 6-well plates. The cells were cultured under a humidified atmosphere of 95% air/5% CO2 at 37° C. for 24 hours. The medium was replaced by 1 ml of DMEM containing 10% of FCS and 50 μg/ml of acetylated human low density lipoprotein (AcLDL), followed by culturing for 16 hours. Five microliters of each compound dissolved in dimethyl sulfoxide was added to the medium, and the cells were cultured for another 2 hours. Then, [^14 C]oleate (2×10^6 dpm/well) bovine serum albumin complex was added in the medium. After 2 hours of culture, cells were collected and the cholesterol-esterifying activity was determined by measuring radioactivity incorporated into cholesterol esters in the cells. The recovery of the cholesterol esters was determined by the addition of [^3 H]cholesteryl oleate, and the esterifying activity was corrected using the recovery. As to the inhibitory activity on cholesterol esterification of the compound to be tested, the inhibition rate was calculated by the following equation. [formula] wherein A: the cholesterol-esterifying activity of AcLDL-loaded cells to which the compound to be tested was added.
B: the cholesterol-esterifying activity of AcLDL-loaded cells to which dimethyl sulfoxide was added.

The test system of test [3] is hamsters fed on a high-cholesterol diet. As to the kind of experiment: Serum cholesterol lowering activity in hamsters fed on a high-cholesterol diet. The test is classed as in vivo, Male Syrian hamsters. As to conditions: Mesocricetus auratus, 30 mg/kg per day for 4 days, 24 hours after last administration, read-out: Reduction rate of total serum cholesterol concentration. The procedure:
Serum cholesterol lowering activity in hamsters fed on a high-cholesterol diet
Male Syrian hamsters of 10-week-old were divided into three groups. The first group (normal group) was fed an ordinary diet for 4 days. The second group (control group) was fed a high cholesterol diet (containing 0.5% cholesterol and 8.0% coconut oil) for 4 days. The third group (treated group) was fed a high cholesterol diet and was treated with a compound for 4 days. Simultaneously with the beginning of the above feeding, the compound was suspended in a 0.5% carboxymethyl cellulose solution and administered to the treated group, in a dose of 30 mg (in terms of the compound) per kg of body weight per day for 4 days. A 0.5% carboxymethyl cellulose solution was also administered to the normal group and the control group in the same manner as above.
After 24 hours of the last administration, blood was collected and the cholesterol concentration in serum was measured by an enzymatic method. The reduction rate of the total serum cholesterol concentration was calculated from values obtained for the three groups by the following equation. [formula] wherein A: the serum cholesterol concentration of the control group.
B: the serum cholesterol concentration of the treated group.
C: the serum cholesterol concentration of the normal group.

As usually defined, the inhibition is the change of the read-out against control, counted positive when it falls. `CCc1cccc(CC)c1NC(=O)Nc1cnc(-c2ccccc2)nc1-c1ccccc1C(F)(F)F` [Compound 37, N-(2,6-Diethylphenyl)-N'-[2-phenyl-4-(2-trifluoromethylphenyl)pyrimidin-5-yl]urea]: the inhibition at 0.01 µM in test [1] was found to be 72.3%. In addition, in test [2], the inhibition at 0.3 µM was 67.1% and the inhibition at 1 µM amounted to 87.2%. For the same molecule, the inhibition in vivo at 30 mg/kg in test [3] was found to be 63.3%.

Consider `Cc1ccccc1-c1nc(-c2ccccc2)ncc1NC(=O)Nc1c(C(C)C)cccc1C(C)C` [Compound 36, N-(2,6-Diisopropylphenyl)-N'-[4-(2-methylphenyl)-2-phenylpyrimidin-5-yl]urea], for which the inhibition at 0.01 µM in test [1] worked out at 72.9%. For the same molecule, the inhibition at 0.3 µM in test [2] was determined as 51.6%. In addition, the inhibition in vivo at 30 mg/kg in test [3] turned out to be 63.4%.

In the case of `CC(C)c1cccc(C(C)C)c1NC(=O)Nc1cnc(-c2ccccc2)nc1-c1ccccc1` [Compound 32, N-(2,6-Diisopropylphenyl)-N'-(2,4-diphenylpyrimidin-5-yl)urea], the inhibition at 0.01 µM in test [1] stood at 73.5%. In test [2], the inhibition at 0.3 µM was 58% and the inhibition at 1 µM came to 74.3%. Further, the inhibition in vivo at 30 mg/kg in test [3] worked out at 63.7%.

`CC(C)c1cccc(C(C)C)c1NC(=O)Nc1cnc(-c2ccccc2)nc1-c1ccccc1Cl` [Compound 15, N-[4-(2-Chlorophenyl)-2-phenylpyrimidin-5-yl]-N'-(2,6-diisopropylphenyl)urea]: the inhibition at 0.01 µM in test [1] is 67.6%. In addition, the inhibition at 1 µM came to 99.5% in test [1] (1 μM) and 73.3% in test [2]. In test [2], the inhibition at 0.3 µM worked out at 29.5%. Besides, in test [3], the inhibition in vivo at 30 mg/kg stood at 57.6%.

Regarding `CCc1cccc(CC)c1NC(=O)Nc1cnc(N2CCCCC2)nc1-c1ccccc1Cl` [Compound 55, N-[4-(2-Chlorophenyl)-2-(N-piperidino)pyrimidin-5-yl]-N'-(2,6-diethylphenyl)urea], the inhibition at 0.01 µM in test [1] stood at 75.7%. Also, in test [2], the inhibition at 0.3 µM came to 34.9%. In addition, the inhibition in vivo at 30 mg/kg in test [3] was 77.5%.
